From patent US20250034216A1, “STEREOSELECTIVE COVALENT LIGANDS FOR ONCOGENIC AND IMMUNOLOGICAL PROTEINS” (The Scripps Research Institute, priority 2021, published 2025)

What was measured:
ZBED4_C599 = biological target: T1, ZBED4_C599 (Homo sapiens, UniProt O75132); assay: IA-DTB cysteine engagement; assay type: binding; settings: 22Rv1 cells, 20 μM probe, 1 h, relative to DMSO
T1 construct: endogenous in cells; host or cells: 22Rv1
T1 sequence (O75132 1-1171): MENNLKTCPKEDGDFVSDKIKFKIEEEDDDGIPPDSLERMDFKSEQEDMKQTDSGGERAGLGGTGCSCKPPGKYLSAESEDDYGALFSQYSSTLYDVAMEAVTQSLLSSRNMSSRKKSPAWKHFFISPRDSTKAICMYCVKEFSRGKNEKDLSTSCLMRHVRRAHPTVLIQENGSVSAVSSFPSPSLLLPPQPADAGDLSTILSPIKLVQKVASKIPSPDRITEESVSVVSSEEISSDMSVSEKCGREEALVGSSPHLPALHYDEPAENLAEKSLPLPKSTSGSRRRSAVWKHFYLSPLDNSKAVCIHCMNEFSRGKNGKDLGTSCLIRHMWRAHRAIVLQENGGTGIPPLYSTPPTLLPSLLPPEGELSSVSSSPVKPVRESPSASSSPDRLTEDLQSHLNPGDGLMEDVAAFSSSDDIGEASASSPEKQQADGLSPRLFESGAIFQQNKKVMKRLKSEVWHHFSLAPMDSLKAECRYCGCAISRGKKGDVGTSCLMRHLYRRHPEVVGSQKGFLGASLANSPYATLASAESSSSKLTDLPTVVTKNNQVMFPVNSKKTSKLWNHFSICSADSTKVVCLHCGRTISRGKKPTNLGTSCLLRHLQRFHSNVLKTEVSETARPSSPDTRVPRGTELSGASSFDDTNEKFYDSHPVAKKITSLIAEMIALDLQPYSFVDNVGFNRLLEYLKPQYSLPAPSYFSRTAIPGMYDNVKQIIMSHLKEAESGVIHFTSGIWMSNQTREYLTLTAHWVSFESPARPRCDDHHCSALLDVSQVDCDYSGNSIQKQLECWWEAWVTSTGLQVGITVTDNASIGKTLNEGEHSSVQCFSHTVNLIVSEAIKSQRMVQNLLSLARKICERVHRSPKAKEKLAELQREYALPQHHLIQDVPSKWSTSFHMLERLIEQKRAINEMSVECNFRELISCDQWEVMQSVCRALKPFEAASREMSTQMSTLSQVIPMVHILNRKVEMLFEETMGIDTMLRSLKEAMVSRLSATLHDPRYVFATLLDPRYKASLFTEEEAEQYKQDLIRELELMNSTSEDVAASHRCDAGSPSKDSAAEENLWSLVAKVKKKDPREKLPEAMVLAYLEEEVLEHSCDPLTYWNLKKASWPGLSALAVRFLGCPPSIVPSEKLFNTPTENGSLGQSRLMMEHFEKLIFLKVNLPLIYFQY
In short: (§1)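 Probe-exposed cells were lysed, IA-DTB-labeled, trypsinized and streptavidin-enriched. Multiplexed TMT quantitation gave engagement ratios versus DMSO, with non-tryptic peptides excluded and intensities normalized to median summed signal.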

SUPT3H_C268 = biological target: T2, SUPT3H_C268 (Homo sapiens, UniProt O75486); assay: IA-DTB cysteine engagement; assay type: binding; settings: 22Rv1 cells, 20 μM probe, 1 h, relative to DMSO
T2 construct: endogenous in cells; host or cells: 22Rv1
T2 sequence (O75486 1-317): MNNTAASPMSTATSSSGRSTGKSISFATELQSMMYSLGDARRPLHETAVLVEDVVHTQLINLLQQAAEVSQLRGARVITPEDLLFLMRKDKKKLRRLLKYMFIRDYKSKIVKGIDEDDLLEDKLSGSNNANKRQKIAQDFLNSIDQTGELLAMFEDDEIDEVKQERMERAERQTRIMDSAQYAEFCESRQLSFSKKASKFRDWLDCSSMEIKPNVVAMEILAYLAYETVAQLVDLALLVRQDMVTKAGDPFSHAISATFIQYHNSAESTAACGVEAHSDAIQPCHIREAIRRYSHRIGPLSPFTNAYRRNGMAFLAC
In short: as §1

% engagement ZBED4_C599 (ZBED4_C599) [%]	% engagement SUPT3H_C268 (SUPT3H_C268) [%]	SMILES
16	27	C=CC(=O)N1C[C@@H](c2ccc(Br)cc2)[C@H]1C(=O)Nc1cccc2cccnc12 [MY-1A, (2S,3R)-1-acryloyl-3-(4-bromophenyl)-N-(quinolin-8-yl)azetidine-2-carboxamide]
39	34.5	C=CC(=O)N1C[C@H](c2ccc(Br)cc2)[C@@H]1C(=O)Nc1cccc2cccnc12 [MY-1B, (2R,3S)-1-acryloyl-3-(4-bromophenyl)-N-(quinolin-8-yl)azetidine-2-carboxamide]
83.5	70.5	C=CC(=O)N1C[C@H](c2ccc(Br)cc2)[C@H]1C(=O)Nc1cccc2cccnc12 [MY-3B, (2S,3S)-1-acryloyl-3-(4-bromophenyl)-N-(quinolin-8-yl)azetidine-2-carboxamide]
21	62.5	C=CC(=O)N1C[C@H](c2ccc(Br)cc2)[C@H]1C(=O)Nc1cccc2cccnc12 [MY-3A, (2S,3S)-1-acryloyl-3-(4-bromophenyl)-N-(quinolin-8-yl)azetidine-2-carboxamide]
